Data reported in patent US20110066134A1, “Controlling Drug Transport and Current in Iontophoretic Onychomycosis Treatment” (Nitric Biotherapeutics, Inc., priority 2009, published 2011).
Several values for one entry are separate records, joined by “and”; a condition that tells them apart may be missing. Equal values may be shown once.

Tests used:
[1] = Cadaver toe delivery testing: iontophoretic terbinafine loading into nail, nail bed and surrounding tissue; assay type: in vitro ADME
Protocol: The results of drug loading experiments in cadaver toes reported by Nair [Nair et al., 2009, Pharm Res. 26(9):2194-201] were compared with current measurements made using the current test fixture of FIG. 1 and models for the two tissue groups. The experiments disclosed herein were conducted to determine 1) if a drug delivery gradient existed in masked drape applications, and how that correlated with drug assays in cadaver toes; and 2) to determine the proportion of current flowing in soft tissue vs. into nail in cadaver toe delivery, and to compare that with drug loading found by Nair in the two tissue types. It is believed that the transfer efficiency is higher in nail than into soft tissue.
Cadaver Toe Delivery Testing: Six cadaver toes were soaked in physiologic saline prior to treatment. Each terbinafine loaded applicator type (masked drape and full drape) was placed on the toe and iontophoretic treatment of 0.5 mA for 20 min was delivered. Post treatment, the nails, and sections of nail bed and surrounding tissue, were excised and analyzed. The amount of loaded terbinafine was compiled for each section. The iontophoretic power source and general configuration for the applicator on the cadaver toe are depicted in FIGS. 2A and 2B. Additional details regarding methods used and experimental details for cadaver toe delivery tests can be found in [Nair et al., 2009, Pharm Res. 26(9):2194-201].
FIG. 3A depicts drug assay results from cadaver nails following iontophoresis using a masked drape applicator, while FIG. 3B depicts current measurements taken at the same current levels through cadaver nail into agarose. Terbinafine sample data was compiled allocating samples to the same relative spacing as current sensing nodes in the current test fixture of FIG. 1. […] Results of finite element analysis for essentially masked electrodes over tissue that illustrate gradients with higher resolution can also be seen as provided by Kresteva and Papazov [Krasteva et al., Biomed Eng Online. 2002 Dec. 16; 1:7].
where tx is the transport number, F is Faraday's constant, A is area of application and zx is charge. For a particular “membrane” or “tissue type”, tx is the ratio of (charge, mobility and drug concentration of the charge carrier) to the product of these for all charge carriers, i is current and vcx is an electroosmotic term. Rather than determine individual elements of Kalia's formula, an aggregate transport number of skin (tskin) and nail & nail bed (tnail) can be calculated, essentially aggregating the factors and segmenting them into soft tissue plus nail/nail bed.
Where l is the amount of drug loaded for skin or nail. For a given dose in uA-min, the amount of terbinafine loaded into cadaver nail & nail bed vs. cadaver skin vs. delivered dose and calculated transfer number is
ltotal=lskin+lnail,lskin=dskin×tskin and lnail=dnail×tnail in ug/mA-min, (5)
where dskin, dnail is the product of current through skin (or nail) and time (dose), tskin, tnail is an aggregate of all factors related to delivery into skin (or nail) and lskin, lnail is the amount of terbinafine loaded into skin (or nail).
Table III lists the areas of delivery, current and transfer number calculations for the 6 cadaver toe trials. FIG. 9 depicts the average transport numbers including values calculated for current (for reference), skin alone in Franz cell and Rat.

clinical = conditions: human, in vivo
Protocol: Both applicator designs were used in clinical studies, including clinical nail samples at various iontophoretic dose levels taken 24 hours post treatment. For an average dose of about 8 mA-min, drug amounts for masked drape clipping assays averaged about 423 ug/g and full drape clippings averaged about 842 ug/g. The clipping sizes and volumes varied (n=80, mean=[…], sd=1.8). The amount of drug found in nail clippings for the masked drape treatments appeared to be lower than expected given the higher current concentration in nail vs. levels found for the full drape treatments at a lower level of nail current.
It is believed that the lower drug levels found during the clinical study from nail clippings in the masked drape applications was the result of samples at the extremities of the nail. As contemplated herein, the presence of a drug delivery gradient is supported by the location of clinical nail samples, the results of current distribution modeling and the cadaver toe experiments.
For example, the current measurement and drug loading maps for cadaver nail and toe as depicted in FIG. 3 indicate a significant gradient. Drug loading at the periphery of the nail was about 26 to 77 times less than drug loading in the center of the nail. Nail clippings for the masked drape group in the clinical studies provided herein were taken about 24 hours post treatment from the distal nail. Samples varied in size and volume, but averaged about 1.8 mm long. This size and location corresponds with the nail sampling performed in the cadaver toe experiments in the category of “peripheral 2” or “remaining” and depicted in FIG. 3A in about the 9 to 12 mm range. The current levels predicted by the model in the same areas correlate well with drug distribution samples, r=0.998, p=0.000.
Applying the cadaver transfer number for nail vs. skin to the in-vivo results yields an estimate for nail and drug delivered for both tissues (based upon resistance ratios calculated from measured voltages during the clinical study.)
FIG. 10 depicts the projected delivery of terbinafine into skin and nail for full drape using cadaver transfer number calculation. The mean level of terbinafine estimated to have been delivered with full drape treatments to patients in the clinical studies using this method is about 12.4 ug skin, 9.4 ug nail, as compared with a mean of about 15 ug skin and 14 ug nail for cadaver toes.

[2] = cadaver toe, full drape, 0.5 mA for 20 min, average of 6 trials
[3] = cadaver toe, full drape, 0.5 mA for 20 min, individual Trials 1-6

CN(C/C=C/C#CC(C)(C)C)Cc1cccc2ccccc12 [terbinafine]
tf nail = (ug/cm^2)/(dose/cm^2), Avg [1, 2]: 5.180 (ug/cm^2)/(dose/cm^2) | tf skin = (ug/cm^2)/(dose/cm^2), Avg [1, 2]: 2.181 (ug/cm^2)/(dose/cm^2) | tf nail = (ug/cm^2)/(dose/cm^2) [1, 3]: 6.358 (ug/cm^2)/(dose/cm^2) and 7.438 (ug/cm^2)/(dose/cm^2) and 3.805 (ug/cm^2)/(dose/cm^2) and 2.328 (ug/cm^2)/(dose/cm^2) and 3.917 (ug/cm^2)/(dose/cm^2) and 7.237 (ug/cm^2)/(dose/cm^2) | tf skin = (ug/cm^2)/(dose/cm^2) [1, 3]: 1.745 (ug/cm^2)/(dose/cm^2) and 1.632 (ug/cm^2)/(dose/cm^2) and 1.975 (ug/cm^2)/(dose/cm^2) and 2.368 (ug/cm^2)/(dose/cm^2) and 1.961 (ug/cm^2)/(dose/cm^2) and 3.403 (ug/cm^2)/(dose/cm^2) | aggregate transport number for the nail-only application compared with nail in the full drape application ([1]; cadaver toe, n=4, p=0.032): less than the factor for nail in the full drape application | delivery into skin compared with nail & nail bed ([1]; cadaver toes, about 0.5 mA for 20 min, p=0.78, n=6): statistical equivalence | mean terbinafine delivered to nail ([1]; cadaver toes, full drape): ~14 µg | mean terbinafine delivered to skin ([1]; cadaver toes, full drape): about 15 ug | mean level of terbinafine estimated to have been delivered to nail (clinical): ~9.4 µg | mean level of terbinafine estimated to have been delivered to skin (clinical): about 12.4 ug | concentration at 24 h (clinical; Mean Nail Levels, Applicator Design Nail/Skin): 988000 ng/g | concentration at 24 h (clinical; average drug amount in full drape clippings): ~842000 ng/g | concentration at 24 h (clinical; average drug amount in masked drape clipping assays): ~423000 ng/g
